Where two headings read alike, the source gives them in different places.
Columns and labels:
A2058 = assay: ATP-based luminescence cell viability assay (ViaLight), 72 h; set-up: species or system human; conditions: for EC50: A2058, 72 h treatment, read-out: EC50 Values of Olive Oil Polyphenols; for Selectivity index SI (HaCaT): EC50 HaCaT / EC50 A2058; for Selectivity index SI (NHDF): EC50 NHDF / EC50 A2058
Procedure: (§1) The antiproliferative/cytotoxic effects of the selected OOPs on each cell line were assessed by measuring the cellular ATP levels after 72 h treatments using an ATP-based luminescence assay. This assay, initially developed as a tumor chemosensitivity assay, has shown considerable promise as a general in vitro toxicity assay due to its high sensitivity that allows the detection of a small number of cells. Consequently, it can be applied to both cancer cell lines and primary tissue cells. […] The EC50 values were calculated by nonlinear regression (curve fit) using a sigmoidal dose–response equation (Figure 2A and Figure S2).
(§2) The OOPs tested in this study were first dissolved in an appropriate DMSO volume such as to prepare a final stock solution of 50 mM, which was further used to prepare various compound concentrations in DMSO-based solutions. The final DMSO concentration in the cell culture was maintained constant in all treated groups of any given experiment and never exceeded the value of 0.2% (v/v). For the treatment experiments, cells were plated in 96-well culture plates, in 100 μL of complete medium at a seeding density of 5000–10,000 cells/well—depending on cells’ size and doubling time—and were allowed to adhere overnight (~16 h). The next day, 150 μL of complete medium was added to each well and the cells were treated with various concentrations of OOPs. Each concentration was tested in triplicate and was repeated 2–3 times. To prepare the final concentration solutions, 0.5 μL of a 500× stock of each tested compound in DMSO was added directly into each well in a final volume of 250 μL culture medium and was gently mixed by pipetting. Control wells were prepared under the same experimental conditions by adding only DMSO at a final concentration of 0.2% (v/v). Compounds were not renewed during the entire period of cell exposure. All cells were cultured at 37 °C in a 5% (v/v) CO2 for 24, 48 or 72 h.
(§3) Briefly, after the treatment with OOPs, the adapted medium was removed from the dish wells and the cells were washed twice with medium without FBS. Then, the C-lysis (LT27-076) was diluted in PBS (1:2) and a volume of 50 μL was added to each well. Cells were incubated with C-lysis for at least 10 min. Finally, an equal volume of lysed cells from each well and ATP monitoring reagent (AMR; LT27-212) was transferred to the wells of a white-walled illuminometer plate (Greiner bio-one; 655074). Cell viability was quantified by measuring luminescence using a multi-mode microplate reader Safire^2 Tecan (software Magellan V6.00 STD.2PC WIN.20000/XP).

AGS [1] = assay: as above; set-up: species or system human; conditions: 72 h treatment, read-out: EC50 Values of Olive Oil Polyphenols
Procedure: as §1, §2, §3

Caco-2 = assay: as above; set-up: species or system human; conditions: 72 h treatment, read-out: EC50 Values of Olive Oil Polyphenols
Procedure: as §1, §2, §3

H1299 = assay: as above; set-up: species or system human; conditions: for Selectivity index SI (MRC-5): EC50 MRC-5 / EC50 H1299; for EC50: H1299, 72 h treatment, read-out: EC50 Values of Olive Oil Polyphenols
Procedure: as §1, §2, §3

H1437 = assay: as above; set-up: species or system human; conditions: for Selectivity index SI (MRC-5): EC50 MRC-5 / EC50 H1437; for EC50: H1437, 72 h treatment, read-out: EC50 Values of Olive Oil Polyphenols
Procedure: as §1, §2, §3

HT-29 = assay: as above; set-up: species or system human; conditions: 72 h treatment, read-out: EC50 Values of Olive Oil Polyphenols
Procedure: as §1, §2, §3

HaCaT = assay: as above; set-up: species or system human; conditions: HaCaT (immortal keratinocytes), 72 h treatment, read-out: EC50 Values of Olive Oil Polyphenols
Procedure: as §1, §2, §3

Hela = assay: as above; set-up: species or system human; conditions: 72 h treatment, read-out: EC50 Values of Olive Oil Polyphenols
Procedure: as §1, §2, §3

HepG-2 = assay: as above; set-up: species or system human; conditions: 72 h treatment, read-out: EC50 Values of Olive Oil Polyphenols
Procedure: as §1, §2, §3

Huh-7 = assay: as above; set-up: species or system human; conditions: 72 h treatment, read-out: EC50 Values of Olive Oil Polyphenols
Procedure: as §1, §2, §3

MCF-7 = assay: as above; set-up: species or system human; conditions: 72 h treatment, read-out: EC50 Values of Olive Oil Polyphenols
Procedure: as §1, §2, §3

MDA-MB 231 = assay: as above; set-up: species or system human; conditions: for Selectivity index SI (MCF 10A): EC50 MCF 10A / EC50 MDA-MB 231; for EC50: MDA-MB 231, 72 h treatment, read-out: EC50 Values of Olive Oil Polyphenols
Procedure: as §1, §2, §3

ME-180 = assay: as above; set-up: species or system human; conditions: 72 h treatment, read-out: EC50 Values of Olive Oil Polyphenols
Procedure: as §1, §2, §3

MKN-45 = assay: as above; set-up: species or system human; conditions: 72 h treatment, read-out: EC50 Values of Olive Oil Polyphenols
Procedure: as §1, §2, §3

MRC-5 = assay: as above; set-up: species or system human; conditions: MRC-5 (non cancer, lung), 72 h treatment, read-out: EC50 Values of Olive Oil Polyphenols
Procedure: as §1, §2, §3

PANC-1 = assay: as above; set-up: species or system human; conditions: 72 h treatment, read-out: EC50 Values of Olive Oil Polyphenols
Procedure: as §1, §2, §3

SK-BR-3 = assay: as above; set-up: species or system human; conditions: for Selectivity index SI (MCF 10A): EC50 MCF 10A / EC50 SK-BR-3; for EC50: SK-BR-3, 72 h treatment, read-out: EC50 Values of Olive Oil Polyphenols
Procedure: as §1, §2, §3

SK-MEL-28 = assay: as above; set-up: species or system human; conditions: for Selectivity index SI (HaCaT): EC50 HaCaT / EC50 SK-MEL-28; for Selectivity index SI (NHDF): EC50 NHDF / EC50 SK-MEL-28; for EC50: SK-MEL-28, 72 h treatment, read-out: EC50 Values of Olive Oil Polyphenols
Procedure: as §1, §2, §3

AGS [2] = assay: ATP assay under 1% (v/v) O2 versus 20% (v/v) O2, 72 h; format: cell-based, human; conditions: 1% (v/v) O2 vs 20% (v/v) O2
Procedure: The effects of drugs on cancer cell lines are usually tested under atmospheric conditions (20% (v/v) O2). However, the O2 content in tissues (normoxia) and solid tumors (hypoxia) is ≤ 5% (v/v). In some tumors (i.e., pancreatic tumors) the % O2 is even ≤ 1% (v/v). This affects cell metabolism and signaling pathways which depend on the hypoxia-induced Factor 1A (HIF1A) and it could affect the activity of certain drugs. […] The effects of these three OOPs were tested on the MDA-MB 231, SK-BR-3 and MCF-7 breast cancer and on the AGS stomach cancer cell lines.
Figure 6 Effect of O2 concentration on the antiproliferative/cytotoxic effect of OOPs. […] Cell viability was determined on (A) AGS, (B) MDA-MB 231, (C) MCF-7 and (D) SK-BR-3 cell lines using ATP-based luminescence assay. The results presented are from two independent experiments performed in triplicate. Bar graphs represent the mean cell count ± SE in each treatment group normalized to the control group (i.e., cells treated only with 0.2% (v/v) DMSO). * p < 0.05; ** p ≤ 0.01; *** p ≤ 0.001 (t-test) comparing the two different conditions.

MCF-10A cells = tested on: MCF-10A cells; set-up: method as in PMID 23403296, PMID 33117773, PMID 24849787, PMID 30964898; conditions: 50 μM; cited from earlier work

For ligstroside aglycone [4a,b], the EC50 (A2058) was 63.6 ± 1.6 µM, the “Selectivity index SI (HaCaT)” value (A2058) was 0.9 and the “Selectivity index SI (NHDF)” value (A2058) was 0.7. For the same compound, the EC50 (AGS [1]) was 48.5 ± 2.5 µM, the EC50 (Caco-2) was 24.4 ± 1.6 µM and the “Selectivity index SI (MRC-5)” value (H1299) was 0.2. The EC50 (H1299) was 83.3 ± 1.9 µM, the “Selectivity index SI (MRC-5)” value (H1437) was 1.1 and the EC50 (H1437) was 11.6 ± 1.1 µM. It also gave an EC50 (HT-29) of 98.2 ± 8.4 µM, an EC50 (HaCaT) of 55.6 ± 1 µM and an EC50 (Hela) of 47.6 ± 1.8 µM. For the same compound, the EC50 (HepG-2) was 45.8 ± 3.4 µM, the EC50 (Huh-7) was 36 ± 0.9 µM and the EC50 (MCF-7) was 61.8 ± 1.2 µM. The “Selectivity index SI (MCF 10A)” value (MDA-MB 231) was 1.9, the EC50 (MDA-MB 231) was 31.6 ± 2.7 µM and the EC50 (ME-180) was 51.1 ± 2.2 µM. The EC50 (MKN-45) was 24 ± 1.2 µM, the EC50 (MRC-5) was 13.2 ± 0.9 µM and the EC50 (PANC-1) was 45.7 ± 1.4 µM. For the same compound, the “Selectivity index SI (MCF 10A)” value (SK-BR-3) was 2.6, the EC50 (SK-BR-3) was 21.5 ± 2.5 µM and the “Selectivity index SI (HaCaT)” value (SK-MEL-28) was 2.5. For the same compound, the “Selectivity index SI (NHDF)” value (SK-MEL-28) was 2.1, the EC50 (SK-MEL-28) was 22.2 ± 1.2 µM and the “bioactivity under hypoxia versus atmospheric O2” value (AGS [2]) was “less effective under hypoxic conditions”. The “sensitivity of cells to treatment” value (MCF-10A cells) was “resistant”.
In the case of C/C=C(/C=O)[C@@H](CC=O)CC(=O)OCCc1ccc(O)c(O)c1 [compound 2, oleacein], the “Selectivity index SI (HaCaT)” value (A2058) is reported as 0.9, the “Selectivity index SI (NHDF)” value (A2058) is reported as 0.9 and the EC50 (A2058; Homo sapiens, A2058, 72 h) is reported as 55.7 ± 3.4 µM. The EC50 (AGS [1]; Homo sapiens, 72 h) was 46.2 ± 2.3 µM, the EC50 (Caco-2; Homo sapiens, Caco-2, 72 h) was > 100 µM and the “Selectivity index SI (MRC-5)” value (H1299) was 0.1. The EC50 (H1299; Homo sapiens, NCI-H1299) was 61.7 ± 1.3 µM, the “Selectivity index SI (MRC-5)” value (H1437) was 0.1 and the EC50 (H1437; Homo sapiens, NCI-H1437, 72 h) was 74.6 ± 2.1 µM. For the same compound, the EC50 (HT-29; Homo sapiens, HT-29, 72 h) was > 100 µM, the EC50 (HaCaT) was 51.8 ± 4.2 µM and the EC50 (HaCaT; Homo sapiens, HaCaT, 72 h) was > 50 µM. For the same compound, the EC50 (Hela; Homo sapiens, HeLa, 72 h) was 46.3 ± 4.9 µM, the EC50 (HepG-2; Homo sapiens, HepG2, 72 h) was 82.8 ± 0.7 µM and the EC50 (Huh-7; Homo sapiens, Huh-7, 72 h) was 49.6 ± 0.5 µM. For the same compound, the EC50 (MCF-7; Homo sapiens, MCF7, 72 h) was > 100 µM, the “Selectivity index SI (MCF 10A)” value (MDA-MB 231) was 0.7 and the EC50 (MDA-MB 231; Homo sapiens, MDA-MB-231, 72 h) was 37.7 ± 2.2 µM. For the same compound, the EC50 (ME-180; Homo sapiens, ME-180, 72 h) was 25.2 ± 0.2 µM, the EC50 (MKN-45; Homo sapiens, MKN-45, 72 h) was 25 ± 2.1 µM and the EC50 (MRC-5; Homo sapiens, MRC5) was 7 ± 0.9 µM. For the same compound, the EC50 (PANC-1; Homo sapiens, PANC-1, 72 h) was 30.9 ± 0.2 µM, the “Selectivity index SI (MCF 10A)” value (SK-BR-3) was 0.5 and the EC50 (SK-BR-3; Homo sapiens, SK-BR-3, 72 h) was 45.6 ± 2.2 µM. For the same compound, the “Selectivity index SI (HaCaT)” value (SK-MEL-28) was 1.6, the “Selectivity index SI (NHDF)” value (SK-MEL-28) was 1.5 and the EC50 (SK-MEL-28; Homo sapiens, SK-MEL-28, 72 h) was 33.4 ± 2.4 µM.

— PMC9820430, “New Affordable Methods for Large-Scale Isolation of Major Olive Secoiridoids and Systematic Comparative Study of Their Antiproliferative/Cytotoxic Effect on Multiple Cancer Cell Lines of Different Cancer Origins” (International Journal of Molecular Sciences, 2022)
